# From PMC9873984, “Membrane cholesterol regulates inhibition and substrate transport by the glycine transporter, GlyT2” (Life Science Alliance, 2023)
# Where a chain is given by its changes, count along the chain named.
# Columns and labels:
# GlyT2 F515W mutant = target: T1, GlyT2 F515W mutant (Homo sapiens, UniProt Q9Y345, F515W); assay: Inhibitor concentration–responses on glycine transport currents, two-electrode voltage clamp; format: cell-based; design: expressed in transfected cells; host or cells: Xenopus laevis oocytes injected with mutant RNA (pOTV vector); conditions: for IC50: F515W GlyT2 in Xenopus laevis oocytes
# T1 sequence (Q9Y345 1-797 F515W): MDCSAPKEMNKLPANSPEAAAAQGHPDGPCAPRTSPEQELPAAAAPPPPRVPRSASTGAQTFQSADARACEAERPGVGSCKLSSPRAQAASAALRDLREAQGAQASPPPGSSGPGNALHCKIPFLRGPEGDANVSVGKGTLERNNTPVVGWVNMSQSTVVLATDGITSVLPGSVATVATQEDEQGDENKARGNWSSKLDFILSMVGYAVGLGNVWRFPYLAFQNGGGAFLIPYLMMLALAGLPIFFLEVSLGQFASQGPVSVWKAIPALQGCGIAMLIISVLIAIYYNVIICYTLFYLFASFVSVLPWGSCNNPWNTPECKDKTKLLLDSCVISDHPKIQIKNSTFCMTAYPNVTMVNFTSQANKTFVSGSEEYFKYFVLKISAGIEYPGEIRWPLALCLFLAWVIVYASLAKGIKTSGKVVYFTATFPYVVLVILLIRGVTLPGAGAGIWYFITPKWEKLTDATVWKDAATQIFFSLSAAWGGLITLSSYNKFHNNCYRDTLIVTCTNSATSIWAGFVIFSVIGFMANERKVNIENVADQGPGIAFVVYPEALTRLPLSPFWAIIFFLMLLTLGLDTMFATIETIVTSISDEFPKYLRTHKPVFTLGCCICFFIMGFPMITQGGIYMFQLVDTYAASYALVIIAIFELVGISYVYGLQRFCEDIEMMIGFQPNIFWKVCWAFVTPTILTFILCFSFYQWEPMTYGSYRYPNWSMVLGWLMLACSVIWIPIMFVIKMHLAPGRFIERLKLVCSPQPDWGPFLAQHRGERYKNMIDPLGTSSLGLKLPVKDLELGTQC
# Method: (§1) Because of the slowly reversible nature of the compounds tested, inhibitor concentration–responses were performed cumulatively. An EC50 concentration of glycine was applied until a stable transport current was reached. EC50 concentrations of glycine were used to produce reliable currents for each transporter, and as the inhibitors are non-competitive, application of varying glycine concentrations is unlikely to affect their activity. Increasing concentrations of inhibitors were co-applied with glycine with each concentration producing a distinct plateau before the subsequent concentration was applied. Inhibitor concentration–responses were limited to a maximum concentration of 3 µM to mitigate the risk of changes to the free drug concentration because of micelle formation. Currents after the plateau of each inhibitor concentration were normalized to the current produced by application of glycine alone and fit using the method of least squares: Y=Bottom+(Top−Bottom)/(1+10^[X−LogIC50]), where X is log [inhibitor], Y is current normalized to glycine in the absence of inhibitor, and Top and Bottom are the maximal and minimal plateaus, respectively. The method of least squares was constrained to have the bottom value >0 and the hill slope as −1, enabling the calculation of IC50 values and the extent of inhibition produced by the maximal concentration applied.
# (§2) IC50 values are presented as the mean and 95% confidence interval, whereas inhibition values are presented as the mean ± SEM. Data sets are n ≥ 5 from two batches of oocytes.
# GlyT2 T512A mutant = target: T2, GlyT2 T512A mutant (Homo sapiens, UniProt Q9Y345, T512A); assay: as above; format: cell-based; design: expressed in transfected cells; host or cells: Xenopus laevis oocytes injected with mutant RNA (pOTV vector); conditions: for IC50: T512A GlyT2 in Xenopus laevis oocytes
# T2 sequence (Q9Y345 1-797 T512A): T1 sequence (Q9Y345 1-797 F515W) with T512A, W515F
# Method: as §1, §2
IC50 (GlyT2 F515W mutant) [nM],Inhibition at 3 μM (GlyT2 F515W mutant; F515W) [%],IC50 (GlyT2 T512A mutant) [nM],Inhibition at 3 μM (GlyT2 T512A mutant; T512A) [%],"Inhibition at 1 µM (column head 3 μM, footnote b) (GlyT2 F515W mutant; F515W, 1 µM)",IC50 (GlyT2 T512A mutant; 95% CI could not be fit) [nM],"Inhibition at 1 µM (column head 3 μM, footnote b) (GlyT2 T512A mutant; T512A, 1 µM)",SMILES
400,86.7 ± 1.7,549,50.7 ± 5.7,–,–,–,"CCCCCCCC/C=C\CCCCCCCC(=O)N[C@@H](CC(C)C)C(=O)O [Oleoyl-L-Leucine, oleoyl-L-leucine]"
128,82.0 ± 3.9,85,74.4 ± 4.5,–,–,–,"CCCCCCCC/C=C\CCCCCCCC(=O)N[C@@H](Cc1c[nH]c2ccccc12)C(=O)O [Oleoyl-L-Tryptophan, oleoyl-L-tryptophan]"
–,–,–,–,57.6 ± 2.3^b %,1700,44.1 ± 2.8^b %,"CCCCCCCC/C=C\CCCCCCCC(=O)O[C@H](CC(=O)[O-])C[N+](C)(C)C [Oleoyl-L-Carnitine, oleoyl-L-carnitine]"
689,85.3 ± 6.4,679,68.0 ± 1.7,–,–,–,"CCCCCCCC/C=C\CCCCCCCC(=O)N[C@@H](CCCCN)C(=O)O [Oleoyl-L-Lysine, oleoyl-L-lysine]"
